According to ChEMBL document CHEMBL1908105, “UDP-glucuronosyltransferases and clinical drug-drug interactions” (Pharmacol Ther, 2005):
Several values for one entry are separate records, joined by “and”; a condition that tells them apart may be missing. Equal values may be shown once.

Legend:
[1] = target: T1, UDP-glucuronosyltransferase 1A4 (Homo sapiens, UniProt P22310); test: Drug glucuronidation reaction catalyzed by human recombinant UGT1A4
T1 sequence (P22310 whole entry): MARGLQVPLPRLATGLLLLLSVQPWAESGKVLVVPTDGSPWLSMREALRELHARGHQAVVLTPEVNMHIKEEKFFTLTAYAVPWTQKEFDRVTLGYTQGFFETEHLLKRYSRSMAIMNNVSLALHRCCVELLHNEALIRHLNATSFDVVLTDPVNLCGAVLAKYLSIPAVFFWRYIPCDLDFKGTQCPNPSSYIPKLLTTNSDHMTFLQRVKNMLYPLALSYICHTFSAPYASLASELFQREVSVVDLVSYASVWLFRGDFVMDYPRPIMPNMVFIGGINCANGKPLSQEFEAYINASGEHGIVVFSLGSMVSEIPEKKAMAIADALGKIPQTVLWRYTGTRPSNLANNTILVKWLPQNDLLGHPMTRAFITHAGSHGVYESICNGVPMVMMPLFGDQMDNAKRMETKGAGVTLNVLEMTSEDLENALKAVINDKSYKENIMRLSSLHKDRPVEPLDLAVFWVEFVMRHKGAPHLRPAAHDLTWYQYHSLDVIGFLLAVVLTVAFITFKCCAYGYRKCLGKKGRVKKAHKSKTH

[2] = Inhibition of morphine glucuronidation by human UGT enzymes from liver microsomes; design: species or system Microsome
[3] = Inhibition of mycophenolic acid (1 mM) glucuronidation by human UGT enzymes from liver microsomes; design: species or system Microsome
[4] = Inhibition of mycophenolic acid (0.5 mM) glucuronidation by human kidney microsomes; design: species or system Microsome
UGT2B7 = target: T2, UGT2B7 (Homo sapiens, UniProt P16662); test: (§1) Drug glucuronidation reaction catalyzed by human recombinant UGT2B7; details: recombinant UGT2B7
T2 sequence (P16662 whole entry): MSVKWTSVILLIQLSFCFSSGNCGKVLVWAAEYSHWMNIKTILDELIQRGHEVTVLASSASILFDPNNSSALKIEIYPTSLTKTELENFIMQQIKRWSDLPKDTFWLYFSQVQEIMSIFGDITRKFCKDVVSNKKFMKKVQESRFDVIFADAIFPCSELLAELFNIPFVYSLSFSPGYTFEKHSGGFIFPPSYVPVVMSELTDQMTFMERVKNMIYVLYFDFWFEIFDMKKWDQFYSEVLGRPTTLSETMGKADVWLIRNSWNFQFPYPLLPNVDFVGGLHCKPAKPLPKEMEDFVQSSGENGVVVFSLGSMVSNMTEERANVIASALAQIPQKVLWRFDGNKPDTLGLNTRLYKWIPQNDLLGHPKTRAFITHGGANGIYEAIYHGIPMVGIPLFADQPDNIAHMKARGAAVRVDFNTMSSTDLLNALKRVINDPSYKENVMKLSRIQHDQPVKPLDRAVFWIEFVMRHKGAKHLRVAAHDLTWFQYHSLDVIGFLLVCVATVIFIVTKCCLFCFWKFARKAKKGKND

[5] = target: T3, UDP-glucuronosyltransferase 2B7 (Homo sapiens, UniProt P16662); test: as §1
T3 sequence (P16662 whole entry): T2 sequence (P16662 whole entry)

[6] = Inhibition of AZT glucuronidation by human UGT enzymes from liver microsomes; design: species or system Microsome
[7] = Inhibition of morphine (6-O-glucuronidation) glucuronidation by human UGT enzymes from liver microsomes; design: species or system Microsome
[8] = Inhibition of codeine glucuronidation by human UGT enzymes from liver microsomes; design: species or system Microsome
[9] = Inhibition of morphine (3-O-glucuronidation) glucuronidation by human UGT enzymes from liver microsomes; design: species or system Microsome
[10] = Inhibition of 4-methylumbelliferone glucuronidation by human UGT enzymes from liver microsomes; design: species or system Microsome
[11] = Inhibition of ciramadol glucuronidation by human UGT enzymes from liver microsomes; design: species or system Microsome
[12] = target: T4, UDP-glucuronosyltransferase 1A3 (Homo sapiens, UniProt P35503); test: Drug glucuronidation reaction catalyzed by human recombinant UGT1A3
T4 sequence (P35503 whole entry): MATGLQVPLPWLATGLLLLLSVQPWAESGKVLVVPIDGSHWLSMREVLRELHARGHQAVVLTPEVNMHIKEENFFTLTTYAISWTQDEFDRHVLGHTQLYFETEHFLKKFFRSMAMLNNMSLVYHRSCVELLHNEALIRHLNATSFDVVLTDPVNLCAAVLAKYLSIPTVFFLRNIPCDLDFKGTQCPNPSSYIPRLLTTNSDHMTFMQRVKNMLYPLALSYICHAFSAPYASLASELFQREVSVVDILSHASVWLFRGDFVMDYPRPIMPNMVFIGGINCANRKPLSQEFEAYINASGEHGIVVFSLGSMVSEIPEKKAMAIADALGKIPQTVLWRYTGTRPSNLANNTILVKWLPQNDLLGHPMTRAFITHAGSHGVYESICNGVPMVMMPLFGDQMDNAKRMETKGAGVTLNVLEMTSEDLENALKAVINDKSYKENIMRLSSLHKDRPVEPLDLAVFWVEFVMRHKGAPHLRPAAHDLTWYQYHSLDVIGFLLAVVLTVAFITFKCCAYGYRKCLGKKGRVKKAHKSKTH

[13] = substrate: CN1CC[C@]23c4c5ccc(O[C@@H]6O[C@H](C(=O)O)[C@@H](O)[C@H](O)[C@H]6O)c4O[C@H]2[C@@H](O)C=C[C@H]3[C@H]1C5; test: (§2) Drug glucuronidation reaction catalyzed by human recombinant UGT1A6
[14] = substrate: CCc1c2c(nc3ccc(O)cc13)-c1cc3c(c(=O)n1C2)COC(=O)[C@]3(O)CC; test: as §2
[15] = substrate: CCc1c2c(nc3ccc(O)cc13)-c1cc3c(c(=O)n1C2)COC(=O)[C@]3(O)CC; test: (§3) Drug glucuronidation reaction catalyzed by human recombinant UGT1A7
[16] = substrate: COc1c(C)c2c(c(O)c1C/C=C(\C)CCC(=O)O)C(=O)OC2; test: as §3

CN(C)CCCN1c2ccccc2CCc2ccccc21 [IMIPRAMINE]
Km [1]: 310 µM | Vmax [1]: 180 pmol/min/mg protein

C=CCN1CC[C@]23c4c5ccc(O)c4O[C@H]2C(=O)CC[C@@]3(O)[C@H]1C5 [NALOXONE]
Ki [2]: 630 µM

O=C(O)c1cc(-c2ccc(F)cc2F)ccc1O [DIFLUNISAL]
IC50 [3]: 109 µM | IC50 [4]: 122 µM

CCOC(=O)Nc1ccc(NCc2ccc(F)cc2)cc1N [EZOGABINE]
Km [1]: 322 µM

Cc1cn([C@H]2C[C@H](N=[N+]=[N-])[C@@H](CO)O2)c(=O)[nH]c1=O [ZIDOVUDINE]
Km (UGT2B7): 770 µM | Vmax [5]: 210 pmol/min/mg protein

Cc1cccc(Nc2ccccc2C(=O)O)c1C [MEFENAMIC ACID]
IC50 [3]: 63 µM | IC50 [4]: 49 µM

O=C1C(CC[S+]([O-])c2ccccc2)C(=O)N(c2ccccc2)N1c1ccccc1 (configuration not stated) [SULFINPYRAZONE]
Ki [6]: 2100 µM

C[C@]12CC[C@H]3[C@@H](CCC4=CC(=O)CC[C@@]43C)[C@@H]1CC[C@@H]2O [TESTOSTERONE]
Ki [6]: 250 µM

CN(C)CCC=C1c2ccccc2CCc2ccccc21 [AMITRIPTYLINE]
Ki [7]: 80 µM | Ki [8]: 130 µM | Ki [9]: 160 µM

O=C(N[C@H](CO)[C@H](O)c1ccc([N+](=O)[O-])cc1)C(Cl)Cl [CHLORAMPHENICOL]
Ki [6]: 250 µM | Ki [8]: 270 µM | Ki [2]: 980 µM

C#C[C@]1(O)CC[C@H]2[C@@H]3CCc4cc(O)ccc4[C@H]3CC[C@@]21C [ETHINYL ESTRADIOL]
Ki [6]: 38 µM and 150 µM

CN1C(=O)C(O)N=C(c2ccccc2)c2cc(Cl)ccc21 (configuration not stated) [TEMAZEPAM]
Ki [6]: 580 µM | Ki [10]: 217 µM

CC(C(=O)O)c1cccc(Oc2ccccc2)c1 (configuration not stated) [FENOPROFEN]
Ki [10]: 220 µM

COc1ccc2c(c1)c(CC(=O)O)c(C)n2C(=O)c1ccc(Cl)cc1 [INDOMETHACIN]
Ki [6]: 200 µM

CN/C(=N\CCSCc1nc[nH]c1C)NC#N [CIMETIDINE]
Ki [6]: 11000 µM

CNCCC=C1c2ccccc2CCc2ccccc21 [NORTRIPTYLINE]
Ki [7]: 27 µM | Ki [9]: 33 µM

CN1C(=O)CN=C(c2ccccc2)c2cc(Cl)ccc21 [DIAZEPAM]
Ki [11]: 40 µM | Ki [6]: 300 µM | Ki [8]: 180 µM | Ki [2]: 120 µM

Nc1ccc(S(=O)(=O)c2ccc(N)cc2)cc1 [DAPSONE]
Ki [6]: 1700 µM

O=C(O)c1cccnc1Nc1cccc(C(F)(F)F)c1 [NIFLUMIC ACID]
IC50 [3]: 8 µM | IC50 [4]: 8 µM

Cc1noc(NS(=O)(=O)c2ccc(N)cc2)c1C [SULFISOXAZOLE]
Ki [6]: 47000 µM

Cc1cc(CC(=O)O)n(C)c1C(=O)c1ccc(Cl)cc1 [ZOMEPIRAC]
Ki [6]: 2100 µM

CCCCC1C(=O)N(c2ccccc2)N(c2ccccc2)C1=O [PHENYLBUTAZONE]
Ki [6]: 1400 µM | Ki [8]: 1700 µM

COc1ccc2cc([C@H](C)C(=O)O)ccc2c1 [NAPROXEN]
Ki [6]: 172 µM and 1100 µM

O=C(O)c1ccccc1Nc1cccc(C(F)(F)F)c1 [FLUFENAMIC ACID]
IC50 [3]: 19 µM | IC50 [4]: 13 µM

O=C1Nc2ccc(Cl)cc2C(c2ccccc2Cl)=NC1O (configuration not stated) [LORAZEPAM]
Ki [11]: 140 µM | Ki [6]: 160 µM | Ki [2]: 160 µM

CN1CCC(=C2c3ccccc3CC(=O)c3sccc32)CC1 [KETOTIFEN]
Vmax [12]: 6 pmol/min/mg protein and 12 pmol/min/mg protein | Vmax [1]: 130 pmol/min/mg protein and 140 pmol/min/mg protein

CN1C(=O)CN=C(c2ccccc2F)c2cc([N+](=O)[O-])ccc21 [FLUNITRAZEPAM]
Ki [6]: 190 µM

Nc1ccc(S(=O)(=O)Nc2nccs2)cc1 [SULFATHIAZOLE]
Ki [6]: 24000 µM

CN(C)CCCN1c2ccccc2CCc2ccc(Cl)cc21 [CLOMIPRAMINE]
Ki [7]: 56 µM | Ki [9]: 90 µM

B1: UDP-glucuronosyltransferase 1A6 (Homo sapiens) (protein)
chain: MACLLRSFQRISAGVFFLALWGMVVGDKLLVVPQDGSHWLSMKDIVEVLSDRGHEIVVVVPEVNLLLKESKYYTRKIYPVPYDQEELKNRYQSFGNNHFAERSFLTAPQTEYRNNMIVIGLYFINCQSLLQDRDTLNFFKESKFDALFTDPALPCGVILAEYLGLPSVYLFRGFPCSLEHTFSRSPDPVSYIPRCYTKFSDHMTFSQRVANFLVNLLEPYLFYCLFSKYEELASAVLKRDVDIITLYQKVSVWLLRYDFVLEYPRPVMPNMVFIGGINCKKRKDLSQEFEAYINASGEHGIVVFSLGSMVSEIPEKKAMAIADALGKIPQTVLWRYTGTRPSNLANNTILVKWLPQNDLLGHPMTRAFITHAGSHGVYESICNGVPMVMMPLFGDQMDNAKRMETKGAGVTLNVLEMTSEDLENALKAVINDKSYKENIMRLSSLHKDRPVEPLDLAVFWVEFVMRHKGAPHLRPAAHDLTWYQYHSLDVIGFLLAVVLTVAFITFKCCAYGYRKCLGKKGRVKKAHKSKTH
Km [13]: 18 mM | Vmax [13]: 2.1e-05 µmol/min/mg | Km [14]: 97 µM | Vmax [14]: 2.8e-05 µmol/min/mg

B2: UDP-glucuronosyltransferase 1A7 (Homo sapiens) (protein)
chain: MARAGWTGLLPLYVCLLLTCGFAKAGKLLVVPMDGSHWFTMQSVVEKLILRGHEVVVVMPEVSWQLGRSLNCTVKTYSTSYTLEDQDREFMVFADARWTAPLRSAFSLLTSSSNGIFDLFFSNCRSLFNDRKLVEYLKESCFDAVFLDPFDACGLIVAKYFSLPSVVFARGIFCHYLEEGAQCPAPLSYVPRLLLGFSDAMTFKERVWNHIMHLEEHLFCPYFFKNVLEIASEILQTPVTAYDLYSHTSIWLLRTDFVLEYPKPVMPNMIFIGGINCHQGKPVPMEFEAYINASGEHGIVVFSLGSMVSEIPEKKAMAIADALGKIPQTVLWRYTGTRPSNLANNTILVKWLPQNDLLGHPMTRAFITHAGSHGVYESICNGVPMVMMPLFGDQMDNAKRMETKGAGVTLNVLEMTSEDLENALKAVINDKSYKENIMRLSSLHKDRPVEPLDLAVFWVEFVMRHKGAPHLRPAAHDLTWYQYHSLDVIGFLLAVVLTVAFITFKCCAYGYRKCLGKKGRVKKAHKSKTH
Km [15]: 5 µM | Vmax [15]: < 1e-06 µmol/min/mg | Km [16]: 30 µM | Vmax [16]: 0.00037 µmol/min/mg
